Our source for the IC50 values is BindingDB's records for patent US12570607 (CSPC Zhongqi Pharmaceutical Technology (Shijiazhuang) Co., 2026).

As usually defined, the IC50 is the point on the concentration scale where inhibition reaches its midpoint.

Common to all, as to test: Inhibitory Effect Assay
For test [1], the target named is Cyclin-dependent kinase 1 (Homo sapiens, UniProt P06493). Here is the method:
(§1) A compound dissolved in DMSO (50 nL) was transferred to the kinase reaction plate by using acoustic technology (Echo). 5 μL of a CDK kinase dilution solution was added to the kinase reaction plate and incubated at room temperature for 10 minutes after centrifugation. 5 μL of a substrate premix solution was added to the plate, and the final concentrations of the substrate and the ATP in each well were shown in Table 1. After centrifugation, the reaction was performed at 30° C. for 120 minutes.

In test [2] the target is Cyclin-dependent kinase 2 (Homo sapiens, UniProt P24941). Here is the method:
as §1

The target of test [3] is Cyclin-dependent kinase 5 (Homo sapiens, UniProt Q00535). Here is the method:
as §1

Test [4] addresses Cyclin-dependent kinase 6 (Homo sapiens, UniProt Q00534). The protocol: as §1
The target of test [5] is Cyclin-dependent kinase 7 (Homo sapiens, UniProt P50613). The protocol:
as §1

The target of test [6] is Cyclin-dependent kinase 9 (Homo sapiens, UniProt P50750). Here is the method:
as §1

Test [7] concerns the target Cyclin-dependent kinase 4 (Homo sapiens, UniProt P11802). Here is the method: as §1

Where only a bound is given, the exact number is not on record here.

Cyclin-dependent kinase 4, sequence (P11802 whole entry): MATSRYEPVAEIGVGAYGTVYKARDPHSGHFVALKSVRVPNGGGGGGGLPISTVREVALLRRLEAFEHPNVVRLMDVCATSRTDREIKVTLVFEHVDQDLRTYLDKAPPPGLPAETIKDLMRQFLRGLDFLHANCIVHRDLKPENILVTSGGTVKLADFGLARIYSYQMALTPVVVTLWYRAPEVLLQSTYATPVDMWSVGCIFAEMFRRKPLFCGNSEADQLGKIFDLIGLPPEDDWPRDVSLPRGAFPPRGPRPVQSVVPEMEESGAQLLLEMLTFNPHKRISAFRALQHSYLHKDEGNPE
Cyclin-dependent kinase 6, sequence (Q00534 whole entry): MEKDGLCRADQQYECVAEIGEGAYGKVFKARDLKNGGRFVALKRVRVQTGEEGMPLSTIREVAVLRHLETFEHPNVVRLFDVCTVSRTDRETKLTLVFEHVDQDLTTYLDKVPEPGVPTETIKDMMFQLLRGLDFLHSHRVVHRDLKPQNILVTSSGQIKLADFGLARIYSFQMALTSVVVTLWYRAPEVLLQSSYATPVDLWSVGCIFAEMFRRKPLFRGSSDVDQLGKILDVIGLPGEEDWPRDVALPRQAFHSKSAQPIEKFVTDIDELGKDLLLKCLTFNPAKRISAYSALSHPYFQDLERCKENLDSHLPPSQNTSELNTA
Cyclin-dependent kinase 5, sequence (Q00535 whole entry): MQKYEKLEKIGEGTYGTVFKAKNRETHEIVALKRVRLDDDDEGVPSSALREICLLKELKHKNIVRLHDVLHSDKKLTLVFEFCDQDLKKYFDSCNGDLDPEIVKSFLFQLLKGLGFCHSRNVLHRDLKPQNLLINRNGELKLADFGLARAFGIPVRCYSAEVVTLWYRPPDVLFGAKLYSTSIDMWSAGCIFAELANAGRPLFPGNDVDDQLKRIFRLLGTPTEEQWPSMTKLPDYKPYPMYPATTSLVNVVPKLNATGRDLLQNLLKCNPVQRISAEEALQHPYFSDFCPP
Cyclin-dependent kinase 9, sequence (P50750 whole entry): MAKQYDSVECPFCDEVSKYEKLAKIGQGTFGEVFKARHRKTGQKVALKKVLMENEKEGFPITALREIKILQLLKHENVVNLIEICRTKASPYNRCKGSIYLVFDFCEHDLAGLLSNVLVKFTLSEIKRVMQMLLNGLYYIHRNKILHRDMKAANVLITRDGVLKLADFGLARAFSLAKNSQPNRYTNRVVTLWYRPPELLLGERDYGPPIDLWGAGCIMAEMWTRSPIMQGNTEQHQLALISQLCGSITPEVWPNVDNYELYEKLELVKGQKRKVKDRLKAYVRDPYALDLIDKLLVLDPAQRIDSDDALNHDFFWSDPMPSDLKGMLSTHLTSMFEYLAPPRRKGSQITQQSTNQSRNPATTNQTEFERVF
Cyclin-dependent kinase 1, sequence (P06493 whole entry): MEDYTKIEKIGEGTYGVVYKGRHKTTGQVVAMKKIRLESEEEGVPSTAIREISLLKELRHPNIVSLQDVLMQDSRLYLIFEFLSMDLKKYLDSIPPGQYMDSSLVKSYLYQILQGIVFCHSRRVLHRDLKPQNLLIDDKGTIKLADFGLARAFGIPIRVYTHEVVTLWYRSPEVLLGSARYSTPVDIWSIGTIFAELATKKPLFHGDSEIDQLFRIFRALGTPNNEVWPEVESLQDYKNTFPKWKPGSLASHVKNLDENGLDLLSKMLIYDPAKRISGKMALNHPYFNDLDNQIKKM
Cyclin-dependent kinase 7, sequence (P50613 whole entry): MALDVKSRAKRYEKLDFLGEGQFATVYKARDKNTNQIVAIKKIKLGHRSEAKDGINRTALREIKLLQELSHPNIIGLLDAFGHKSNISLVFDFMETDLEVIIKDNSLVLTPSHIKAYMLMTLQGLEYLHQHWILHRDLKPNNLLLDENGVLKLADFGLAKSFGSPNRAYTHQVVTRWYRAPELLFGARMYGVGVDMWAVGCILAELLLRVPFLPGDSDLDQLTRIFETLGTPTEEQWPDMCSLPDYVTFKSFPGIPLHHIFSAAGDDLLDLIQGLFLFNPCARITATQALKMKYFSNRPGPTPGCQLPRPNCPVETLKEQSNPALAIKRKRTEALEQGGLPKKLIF

Take `COc1cc(F)ccc1-c1cc(NC(=O)C2CCCC(NC(C)=O)C2)ncc1F` (stereo unspecified) [US12570607, Example 3]: the IC50 in test [1] worked out at 262 nM; in test [2], 2120 nM; in test [3] it was 721 nM; in test [4], 1390 nM; in test [5], 6210 nM; in test [6], 16.8 nM.
As to `COc1cc(F)ccc1-c1cc(NC(=O)[C@H]2CCC[C@@H](NC(C)=O)C2)ncc1F` [US12570607, Example 5], the IC50 in test [2] was found to be 475 nM; in test [7], 429 nM; in test [4] it was 1120 nM; in test [5], 2750 nM; in test [6] it was 7.9 nM.
For `CC(=O)N[C@@H]1CCC[C@H](C(=O)Nc2cc(-c3ccc(F)cc3OC(C)C)c(F)cn2)C1` [US12570607, Example 8], the half-inhibitory concentration (IC50) in test [1] was 214 nM; in test [2], 991 nM; in test [7], 273 nM; in test [3], 614 nM; in test [4] it was 1770 nM; in test [5], over 9900 nM. The 50% inhibitory concentration (IC50) in test [6] came to 7.21 nM.
`COc1ccccc1-c1cc(NC(=O)[C@H]2CCC[C@@H](NC(C)=O)C2)ncc1F` [US12570607, Example 17]: the IC50 in test [1] came to 193 nM; in test [2] it was 1440 nM; in test [7] it was 474 nM; in test [3], 357 nM; in test [4], 3170 nM; in test [5], 5480 nM. For the same compound, the IC50 in test [6] is 7.12 nM.
Regarding `CC(=O)N[C@@H]1CCC[C@H](C(=O)Nc2cc(-c3cccc4ccoc34)c(F)cn2)C1` [US12570607, Example 19], the half-inhibitory concentration (IC50) is 87.1 nM in test [1]; 638 nM in test [2]; 196 nM in test [7]; 297 nM in test [4]; 1170 nM in test [5]; 7.65 nM in test [6].
On to `COc1cc(F)ccc1-c1cc(NC(=O)[C@H]2CCC[C@@H](NS(C)(=O)=O)C2)ncc1F` [US12570607, Example 25], for which the IC50 stood at 265 nM in test [1]; 2050 nM in test [2]; 811 nM in test [7]; 716 nM in test [3]; 2360 nM in test [4]; 4360 nM in test [5]. The half-inhibitory concentration (IC50) in test [6] came to 7.54 nM.
Regarding `COc1cc(F)ccc1-c1cc(NC(=O)[C@H]2CCC[C@@H](NC(=O)CC#N)C2)ncc1F` [US12570607, Example 32], the concentration for half-maximal inhibition (IC50) in test [1] was determined as 86.7 nM; in test [2], 1070 nM; in test [7], 353 nM; in test [3] it was 329 nM; in test [4] it was 2450 nM; in test [5], 1650 nM. In test [6], half-maximal inhibition (IC50) required 6.86 nM.
On to `COc1cc(F)ccc1-c1cc(NC(=O)[C@H]2CCC[C@@H](NC(=O)C3(C#N)CC3)C2)ncc1F` [US12570607, Example 33], for which the IC50 in test [1] stood at 78.8 nM; in test [2], 761 nM; in test [7], 395 nM; in test [3] it was 168 nM; in test [4] it was 1760 nM; in test [5] it was 1260 nM. Besides, 6.68 nM corresponded to half-maximal inhibition in test [6] (IC50).
For the compound `COC(=O)N[C@@H]1CCC[C@H](C(=O)Nc2cc(-c3ccc(F)cc3OC)c(F)cn2)C1` [US12570607, Example 36], the IC50 in test [1] worked out at 97 nM; in test [2], 558 nM; in test [7], 630 nM; in test [3], 209 nM; in test [4], 3370 nM; in test [5], 3720 nM. Moreover, in test [6], the midpoint of inhibition, the IC50, lay at 6.88 nM.
Take `CNC(=O)N[C@@H]1CCC[C@H](C(=O)Nc2cc(-c3ccc(F)cc3OC)c(F)cn2)C1` [US12570607, Example 37]: the half-inhibitory concentration (IC50) in test [1] came out at 82 nM; in test [2] it was 688 nM; in test [7], 361 nM; in test [3] it was 248 nM; in test [4], 2640 nM; in test [6] it was 6.44 nM.
Turning to `COc1cc(F)ccc1-c1cc(NC(=O)[C@H]2CCC[C@@H](NC(=O)Nc3cc(C)no3)C2)ncc1F` [US12570607, Example 41], the concentration for half-maximal inhibition (IC50) is 196 nM in test [1]; 1250 nM in test [2]; 629 nM in test [7]; 361 nM in test [3]; 4980 nM in test [4]; 1080 nM in test [5]. The compound further came in with an IC50 in test [6] of 7.65 nM.
Regarding `COc1cc(F)ccc1-c1cc(NC(=O)[C@H]2CCC[C@@H](NC(=O)C(F)(F)F)C2)ncc1F` [US12570607, Example 42], the IC50 in test [1] came to 72.6 nM; in test [2] it was 253 nM; in test [7], 184 nM; in test [3], 140 nM; in test [4], 1010 nM; in test [6] it was 6.66 nM.
In the case of `COc1cc(F)ccc1-c1cc(NC(=O)[C@H]2CCC[C@@H](NC(=O)c3ccccn3)C2)ncc1F` [US12570607, Example 43], the IC50 came out at 80 nM in test [1]; 823 nM in test [2]; 582 nM in test [7]; 296 nM in test [3]; 3080 nM in test [4]; 2410 nM in test [5]. The IC50 in test [6] worked out at 7.17 nM.
As to `COc1cc(F)ccc1-c1cc(NC(=O)[C@H]2CCC[C@@H](NC(=O)CO)C2)ncc1F` [US12570607, Example 45], the IC50 in test [1] is 93.2 nM; in test [2], 564 nM; in test [7], 785 nM; in test [3], 284 nM; in test [4], 2790 nM; in test [5] it was 4440 nM. Half-maximal inhibition in test [6] (IC50) required 6.92 nM.
`COc1cc(F)ccc1-c1cc(NC(=O)[C@H]2CCC[C@@H](NC(=O)[C@H](C)O)C2)ncc1F` [US12570607, Example 48]: the half-maximal inhibitory concentration (IC50) in test [1] was found to be 133 nM; in test [7] it was 767 nM; in test [3], 301 nM; in test [4], 3630 nM; in test [5], 2150 nM; in test [6] it was 6.84 nM.
In the case of `COc1cc(F)c(F)cc1-c1cc(NC(=O)[C@H]2CCC[C@@H](NC(=O)C3(C#N)CC3)C2)ncc1F` [US12570607, Example 67], the IC50 is 392 nM in test [2]; 268 nM in test [7]; 82.9 nM in test [3]; 600 nM in test [4]; 1420 nM in test [5]; 5.45 nM in test [6].
As for `COc1cc(F)c(F)cc1-c1cc(NC(=O)[C@H]2CCC[C@@H](NC(=O)CO)C2)ncc1F` [US12570607, Example 68], the concentration for half-maximal inhibition (IC50) in test [1] was determined as 73.6 nM; in test [2] it was 274 nM; in test [7], 402 nM; in test [3] it was 162 nM; in test [4], 2030 nM; in test [5] it was 2630 nM. For the same compound, half-maximal inhibition in test [6] (IC50) was put at 5.55 nM.
